Measured values: patent publication US6989389B2, “Aryl ether substituted imidazoquinolines” (3M Innovative Properties Co., priority 2000, dated 2006)
Counter-ions that a name gives are not always drawn. Like-named read-outs stand apart in the source and are kept apart here.

System: Peripheral blood mononuclear cells (PBMC)
Assay: Cytokine Induction in Human Cells (in vitro human blood cell system, IFN and TNF secreted into culture media)
Assay type: cell-based
Parameters: key to Lowest Effective Concentration (μM) Tumor Necrosis Factor / Lowest Effective Concentration (μM) Interferon: *: no induction was seen at any of the tested concentrations
Details: 18 to 24 hours, tested 30-0.014 μM; for minimal effective concentration: Homo sapiens, PBMC
Description: An in vitro human blood cell system is used to assess cytokine induction. Activity is based on the measurement of interferon and tumor necrosis factor (α) (IFN and TNF, respectively) secreted into culture media as described by Testerman et. al. In “Cytokine Induction by the Immunomodulators Imiquimod and S-27609”, Journal of Leukocyte Biology, 58, 365-372 (September, 1995).
Whole blood from healthy human donors is collected by venipuncture into EDTA vacutainer tubes. Peripheral blood mononuclear cells (PBMC) are separated from whole blood by density gradient centrifugation using Histopaque®-1077. Blood is diluted 1:1 with Dulbecco's Phosphate Buffered Saline (DPBS) or Hank's Balanced Salts Solution (HBSS). The PBMC layer is collected and washed twice with DPBS or HBSS and resuspended at 4×10^6 cells/mL in RPMI complete. The PBMC suspension is added to 48 well flat bottom sterile tissue culture plates (Costar, Cambridge, Mass. or Becton Dickinson Labware, Lincoln Park, N.J.) containing an equal volume of RPMI complete media containing test compound.
The compounds are solubilized in dimethyl sulfoxide (DMSO). The DMSO concentration should not exceed a final concentration of 1% for addition to the culture wells. The compounds are generally tested at concentrations ranging from 30-0.014 μM.
The solution of test compound is added at 60 μM to the first well containing RPMI complete and serial 3 fold dilutions are made in the wells. The PBMC suspension is then added to the wells in an equal volume, bringing the test compound concentrations to the desired range (30-0.014 μM). The final concentration of PBMC suspension is 2×10^6 cells/mL. The plates are covered with sterile plastic lids, mixed gently and then incubated for 18 to 24 hours at 37° C. in a 5% carbon dioxide atmosphere.
Following incubation the plates are centrifuged for 10 minutes at 1000 rpm (˜200×g) at 4° C. The cell-free culture supernatant is removed with a sterile polypropylene pipet and transferred to sterile polypropylene tubes. Samples are maintained at −30 to −70° C. until analysis. The samples are analyzed for interferon (α) by ELISA and for tumor necrosis factor (α) by ELISA or IGEN Assay.
Interferon (α) concentration is determined by ELISA using a Human Multi-Species kit from PBL Biomedical Laboratories, New Brunswick, N.J. Results are expressed in pg/mL.
Tumor necrosis factor (α) (TNF) concentration is determined using ELISA kits available from Biosource International, Camarillo, Calif. Alternately, the TNF concentration can be determined by Origen® M-Series Immunoassay and read on an IGEN M-8 analyzer from IGEN International, Gaithersburg, Md. The immunoassay uses a human TNF capture and detection antibody pair from Biosource International, Camarillo, Calif. Results are expressed in pg/mL.
The table below lists the lowest concentration found to induce interferon and the lowest concentration found to induce tumor necrosis factor for each compound.

[1] = lowest concentration found to induce interferon (α), ELISA, read-out: Lowest Effective Concentration (μM) Interferon
[2] = lowest concentration found to induce tumor necrosis factor (α), ELISA or IGEN assay
[3] = lowest concentration found to induce tumor necrosis factor (α), ELISA or IGEN assay, read-out: Lowest Effective Concentration (μM) Tumor Necrosis Factor
[4] = lowest concentration found to induce interferon (α), ELISA

SMILES	minimal effective concentration [1]	Lowest Effective Concentration (μM) Tumor Necrosis Factor [2]	minimal effective concentration [3]	Lowest Effective Concentration (μM) Interferon [4]
Cc1cccc(COC(Cn2cnc3c(N)nc4ccccc4c32)c2ccccc2)c1 (stereo not drawn) [Example 32]	10 µM	*	–	–
COC(=O)c1ccc(COCCn2cnc3c(N)nc4ccccc4c32)cc1 [Example 41]	1.11 µM	–	3.33 µM	–
Cc1ccc(COCCCCn2cnc3c(N)nc4ccccc4c32)cc1 [Example 77]	0.12 µM	*	–	–
CC(C)C(COCc1ccc(Cl)cc1)n1cnc2c(N)nc3ccccc3c21 (stereo not drawn) [Example 60]	1.11 µM	*	–	–
CC(Cn1cnc2c(N)nc3ccccc3c21)OCc1ccc(C(F)(F)F)cc1 (stereo not drawn) [Example 68]	3.33 µM	*	–	–
CCCCc1nc2c(N)nc3c(c2n1CCOCc1ccc(C#N)cc1)CCCC3 [Example 93]	0.12 µM	–	10 µM	–
CC(C)C(COCc1ccc(Cl)c(Cl)c1)n1cnc2c(N)nc3ccccc3c21 (stereo not drawn) [Example 62]	–	–	3.33 µM	*
CCC(COc1ccccc1C#N)n1cnc2c(N)nc3ccccc3c21 (stereo not drawn) [Example 102]	0.37 µM	*	–	–
C[C@@H](COCc1ccc(C#N)cc1)Cn1cnc2c(N)nc3ccccc3c21 [Example 110]	3.33 µM	*	–	–
Nc1nc2ccccc2c2c1ncn2COCCOCc1ccccc1 [Example 84]	0.37 µM	*	–	–
Cc1ccc(COC(Cn2cnc3c(N)nc4ccccc4c32)c2ccccc2)cc1 (stereo not drawn) [Example 31]	–	*	–	*
Cc1ccc(COCCOCn2cnc3c(N)nc4ccccc4c32)cc1 [Example 85]	0.37 µM	*	–	–
CC(C)(Cn1cnc2c(N)nc3ccccc3c21)OCc1cccc(Cl)c1 [Example 35]	–	*	–	*
CCC(COc1ccc(NC(C)=O)cc1)n1cnc2c(N)nc3ccccc3c21 (stereo not drawn) [Example 104]	0.12 µM	–	10 µM	–
CCCCc1nc2c(N)nc3c(c2n1CCOCc1cccc(Cl)c1)CCCC3 [Example 89]	0.37 µM	–	10 µM	–
CCC(COCc1ccc(OC(F)(F)F)cc1)n1cnc2c(N)nc3ccccc3c21 (stereo not drawn) [Example 48]	0.12 µM	*	–	–
Nc1nc2ccccc2c2c1ncn2CC(OCc1ccccc1)c1ccccc1 (stereo not drawn) [Example 28]	10 µM	*	–	–
Nc1nc2ccccc2c2c1ncn2CCCCOCc1ccc(C(F)(F)F)cc1 [Example 78]	–	*	–	*
CCCCc1nc2c(N)nc3c(c2n1CCOCc1cccc(C(F)(F)F)c1)CCCC3 [Example 92]	3.33 µM	–	3.33 µM	–
COc1ccc(OC(C)Cn2cnc3c(N)nc4ccccc4c32)cc1 (stereo not drawn) [Example 99]	0.37 µM	*	–	–
Nc1nc2ccccc2c2c1ncn2CCCCOCc1ccccc1 [Example 75]	–	*	–	*

SMILES	minimal effective concentration [1]	Lowest Effective Concentration (μM) Tumor Necrosis Factor [2]	minimal effective concentration [3]	Lowest Effective Concentration (μM) Interferon [4]
Nc1nc2ccccc2c2c1ncn2CCOCCCc1cccc(C(=O)O)c1 [Example 12, 3-{3-[2-(4-Amino-1H-imidazo[4,5-c]quinolin-1-yl)ethoxy]propyl}benzoic acid bis(trifluoroacetate)]	10 µM	*	–	–
CC(C)(Cn1cnc2c(N)nc3ccccc3c21)OCc1ccccc1C#N [Example 39]	1.11 µM	*	–	–
COC(=O)c1ccc(COCC(C)n2cnc3c(N)nc4ccccc4c32)cc1 (stereo not drawn) [Example 71]	3.33 µM	*	–	–
Nc1nc2ccccc2c2c1ncn2CC(OCCCCOc1ccccc1)c1ccccc1 (stereo not drawn) [Example 79]	–	*	–	*
Cc1cccc(COCCOCn2cnc3c(N)nc4ccccc4c32)c1 [Example 86]	0.37 µM	*	–	–
CC(C)(Cn1cnc2c(N)nc3ccccc3c21)OCc1ccc(Cl)cc1 [Example 34]	–	*	–	*
CC[C@H](COCc1ccc(C#N)cc1)n1cnc2c(N)nc3ccccc3c21 [Example 142, 4-({[(2R)-2-(4-Amino-1H-imidazo[4,5-c]quinolin-1-yl)butyl]oxy}methyl)benzonitrile]	0.04 µM	–	0.04 µM	–
CCCCc1nc2c(N)nc3c(c2n1CCOCc1ccc(C)cc1)CCCC3 [Example 90]	0.12 µM	–	10 µM	–
CC(n1cnc2c(N)nc3ccccc3c21)C(C)(C)OCc1ccccc1 (stereo not drawn) [Example 80]	–	*	–	*
Nc1ccccc1CCCOCCn1cnc2c(N)nc3ccccc3c21 [Example 18, 1-{2-[3-(2-Aminophenyl)propoxy]ethyl}-1H-imidazo[4,5-c]quinolin-4-amine trifluoroacetate]	0.12 µM	–	1.11 µM	–
CC(Cn1cnc2c(N)nc3ccccc3c21)Oc1ccccc1C#N (stereo not drawn) [Example 97]	1.11 µM	*	–	–
CC(Cn1cnc2c(N)nc3ccccc3c21)Oc1ccc([N+](=O)[O-])cc1 (stereo not drawn) [Example 54]	0.12 µM	*	–	–
CCOCc1nc2c(N)nc3ccccc3c2n1CCOCCCOCc1ccccc1 [Example 21, 1-{2-[3-(Benzyloxy)propoxy]ethyl}-2-(ethoxymethyl)-1H-imidazo[4,5-c]quinolin-4-amine]	0.12 µM	*	–	–
CC(C)C(COCc1ccc(C#N)cc1)n1cnc2c(N)nc3ccccc3c21 (stereo not drawn) [Example 64]	3.33 µM	*	–	–
CC(C)C(COCc1cccc(C(F)(F)F)c1)n1cnc2c(N)nc3ccccc3c21 (stereo not drawn) [Example 63]	–	*	–	*
COC(=O)c1ccc(COCC(C(C)C)n2cnc3c(N)nc4ccccc4c32)cc1 (stereo not drawn) [Example 66]	–	*	–	*
CC(C)C(COc1ccccc1[N+](=O)[O-])n1cnc2c(N)nc3ccccc3c21 (stereo not drawn) [Example 57]	–	–	30 µM	*
Nc1nc2ccccc2c2c1ncn2CC(OCc1ccc(Cl)cc1)c1ccccc1 (stereo not drawn) [Example 29]	–	*	–	*
CCOCc1nc2c(N)nc3ccccc3c2n1CCOCCCCCCOCCCCc1ccccc1 [Example 20, 2-(Ethoxymethyl)-1-(2-{[6-(4-phenylbutoxy)hexyl]oxy}ethyl)-1H-imidazo[4,5-c]quinoline-4-amine]	–	*	–	*
Nc1nc2ccccc2c2c1ncn2CCOc1ccccc1 [Example 105, 1-(2-Phenoxyethyl)-1H-imidazo[4,5-c]quinolin-4-amine]	0.37 µM	–	1.11 µM	–
CCCCc1nc2c(N)nc3c(c2n1CCOCc1ccc(C(F)(F)F)cc1)CCCC3 [Example 91]	0.37 µM	–	10 µM	–
